Measured values published in ChEMBL document CHEMBL1201862, “PubChem BioAssay data set” (2004).
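96-well plates; 48 h exposure; 5 concentrations. Endpoints by linear interpolation between flanking doses. Not reached: highest tested concentration assigned. GI50 marks 50% less growth.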 The source made the active and inactive calls. No stated cut-off is given here; in the data, active = GI50 up to about 1.1 µM and inactive = higher.

Assays:
Assay in all cases: growth of human tumour cells (NCI), 48 h
A498 = system: A498
A549 = system: A549
COLO 205 = system: COLO 205
EKVX = system: EKVX
HCT-15 = system: HCT-15
Hs-578T = system: Hs-578T
MDA-MB-231 = system: MDA-MB-231
NCI-H460 = system: NCI-H460
NCI/ADR-RES = system: NCI/ADR-RES
OVCAR-5 = system: OVCAR-5
OVCAR-8 = system: OVCAR-8
RPMI-8226 = system: RPMI-8226
SF-268 = system: SF-268
SF-539 = system: SF-539
SK-MEL-28 = system: SK-MEL-28
SNB-75 = system: SNB-75
TK-10 = system: TK-10
UACC-257 = system: UACC-257
UO-31 = system: UO-31

Row | Structure (SMILES) | GI50 (A498) | GI50 (A549) | GI50 (COLO 205) | GI50 (EKVX) | GI50 (HCT-15) | GI50 (Hs-578T) | GI50 (MDA-MB-231) | GI50 (NCI-H460) | GI50 (NCI/ADR-RES) | GI50 (OVCAR-5) | GI50 (OVCAR-8) | GI50 (RPMI-8226) | GI50 (SF-268) | GI50 (SF-539) | GI50 (SK-MEL-28) | GI50 (SNB-75) | GI50 (TK-10) | GI50 (UACC-257) | GI50 (UO-31)
1 | Cn1c(=O)c2nc(CCCCc3nc4c(=O)n(C)c(=S)n(C)c4[nH]3)[nH]c2n(C)c1=S | > 100 µM (inactive) | > 100 µM (inactive) | > 100 µM (inactive) | 23.4 µM (inactive) | > 100 µM | > 100 µM (inactive) | > 100 µM (inactive) | > 100 µM (inactive) | > 100 µM (inactive) | > 100 µM (inactive) | > 100 µM (inactive) | > 100 µM (inactive) | > 100 µM (inactive) | 40.8 µM (inactive) | > 100 µM (inactive) | 23.4 µM (inactive) | > 100 µM (inactive) | > 100 µM (inactive) | > 100 µM (inactive)
2 | COC(=O)CN1Cc2cc(C)cc(c2O)CN(CC(=O)OC)Cc2cc(C)cc(c2O)CN(CC(=O)OC)Cc2cc(C)cc(c2O)C1 | > 51.8 µM (inactive) | > 100 µM (inactive) | > 54.3 µM (inactive) | > 100 µM (inactive) | > 66.4 µM | > 100 µM (inactive) | > 36.8 µM (inactive) | 0.272 µM (active) | > 100 µM (inactive) | 26.4 µM (inactive) | > 100 µM (inactive) | > 100 µM (inactive) | > 100 µM (inactive) | > 80.2 µM (inactive) | 99.8 µM (inactive) | > 33.4 µM (inactive) | > 79.8 µM (inactive) | > 100 µM (inactive) | > 44 µM (inactive)
3 | CC(C)C[C@H](NC(=O)CCc1cccc2ccccc12)B(O)O | 0.497 µM (active) | 4.74 µM (inactive) | 4.59 µM (inactive) | 5.27 µM (inactive) | 1.26 µM | 0.857 µM (active) | 2.25 µM (inactive) | 3.21 µM (inactive) | 1.95 µM (inactive) | 0.908 µM (active) | 2.81 µM (inactive) | 0.331 µM (active) | 1.32 µM (inactive) | 0.333 µM (active) | 0.716 µM (active) | 7.98 µM (inactive) | 0.578 µM (active) | 1.2 µM (inactive) | 1.94 µM (inactive)
4 | OCC(CCc1ccccc1I)C1=CCC2(CC1)OCCO2 (stereo not given) | 24.1 µM (inactive) | 19.8 µM (inactive) | 20.1 µM (inactive) | 21.4 µM (inactive) | 21.9 µM | 20.7 µM (inactive) | 23.9 µM (inactive) | 26.5 µM (inactive) | 20.8 µM (inactive) | 15.7 µM (inactive) | 17 µM (inactive) | 53.6 µM (inactive) | 17.8 µM (inactive) | 17.6 µM (inactive) | 17.7 µM (inactive) | 19.4 µM (inactive) | 23.5 µM (inactive) | 21.6 µM (inactive) | 17.8 µM (inactive)
5 | C=C(CN)CO[Si](C)(C)C(C)(C)C | > 100 µM (inactive) | > 100 µM (inactive) | > 100 µM (inactive) | > 100 µM (inactive) | > 100 µM | > 100 µM (inactive) | > 100 µM (inactive) | > 100 µM (inactive) | > 100 µM (inactive) | > 100 µM (inactive) | > 100 µM (inactive) | > 100 µM (inactive) | > 100 µM (inactive) | > 100 µM (inactive) | > 100 µM (inactive) | 72.1 µM (inactive) | 77.1 µM (inactive) | > 100 µM (inactive) | > 100 µM (inactive)
6 | O=c1[nH]n(Cc2ccccc2Cl)c2ccc([N+](=O)[O-])cc12 | 22.3 µM (inactive) | 37.8 µM (inactive) | > 100 µM (inactive) | 58.7 µM (inactive) | 58.6 µM | 48.9 µM (inactive) | 39.4 µM (inactive) | 35.6 µM (inactive) | 28.1 µM (inactive) | > 100 µM (inactive) | 42.3 µM (inactive) | 45.1 µM (inactive) | 49.9 µM (inactive) | 54.2 µM (inactive) | 55.8 µM (inactive) | 47.2 µM (inactive) | 55.6 µM (inactive) | > 100 µM (inactive) | 34.3 µM (inactive)
7 | O=c1cc(CNC2CC3CCC2C3)[nH]c(=O)[nH]1 (stereo not given) | > 100 µM (inactive) | > 100 µM (inactive) | > 100 µM (inactive) | > 100 µM (inactive) | > 100 µM | > 100 µM (inactive) | > 100 µM (inactive) | > 100 µM (inactive) | > 100 µM (inactive) | > 100 µM (inactive) | > 100 µM (inactive) | > 100 µM (inactive) | > 100 µM (inactive) | > 100 µM (inactive) | > 100 µM (inactive) | > 100 µM (inactive) | > 100 µM (inactive) | > 100 µM (inactive) | > 100 µM (inactive)
8 | C=CCN(c1cc(OCc2ccccc2)c(NC(C)=O)cc1[N+](=O)[O-])S(C)(=O)=O | 19.3 µM (inactive) | 33.2 µM (inactive) | > 100 µM (inactive) | 7.05 µM (inactive) | > 100 µM | 24.2 µM (inactive) | 15.7 µM (inactive) | > 100 µM (inactive) | 29.6 µM (inactive) | > 100 µM (inactive) | 23.1 µM (inactive) | 46.7 µM (inactive) | 21.3 µM (inactive) | 17.2 µM (inactive) | > 100 µM (inactive) | 20 µM (inactive) | 36.5 µM (inactive) | > 100 µM (inactive) | 33.1 µM (inactive)
9 | [O-]/[N+](=N\c1ccccc1CO)c1ccccc1CO | > 100 µM (inactive) | > 100 µM (inactive) | > 100 µM (inactive) | > 100 µM (inactive) | > 100 µM | > 100 µM (inactive) | > 100 µM (inactive) | > 100 µM (inactive) | > 100 µM (inactive) | > 100 µM (inactive) | > 100 µM (inactive) | > 100 µM (inactive) | > 100 µM (inactive) | > 100 µM (inactive) | > 100 µM (inactive) | 84.7 µM (inactive) | > 100 µM (inactive) | > 100 µM (inactive) | > 100 µM (inactive)
10 | CC1=NNC(=O)C1C1(C(=O)O)CC(c2c[nH]c3ccccc23)=NC(=S)N1 (stereo not given) | 94.8 µM (inactive) | 37.7 µM (inactive) | 17.1 µM (inactive) | 20 µM (inactive) | 42.6 µM | 15.2 µM (inactive) | 24.3 µM (inactive) | 22.8 µM (inactive) | 46.8 µM (inactive) | > 100 µM (inactive) | 39.4 µM (inactive) | 24.9 µM (inactive) | 32.1 µM (inactive) | 24.5 µM (inactive) | 47.1 µM (inactive) | 16.6 µM (inactive) | > 100 µM (inactive) | 27.6 µM (inactive) | 29.8 µM (inactive)
11 | CNC(=O)OCc1c(COC(=O)NC)c(-c2ccc(Cl)c(Cl)c2)n2c1SCC2 | 0.836 µM (active) | 23.2 µM (inactive) | 9.82 µM (inactive) | 19.8 µM (inactive) | 13 µM | 21 µM (inactive) | 10.8 µM (inactive) | 9.04 µM (inactive) | 16 µM (inactive) | 4.06 µM (inactive) | 3.85 µM (inactive) | 12.2 µM (inactive) | 13.3 µM (inactive) | 15.5 µM (inactive) | 10.8 µM (inactive) | 8.77 µM (inactive) | 2.86 µM (inactive) | 10.4 µM (inactive) | 7.46 µM (inactive)
12 | CC1OC(OC2C(O)COC(OC3C(C)OC(OC4C(OC(=O)[C@]56CCC(C)(C)C[C@@H]5C5=CCC7[C@@]8(C)C[C@H](O)[C@H](OC9OC(CO)C(O)C(OC%10OC(CO)C(O)C(O)C%10O)C9O)[C@@](C)(CO)[C@@H]8CC[C@@]7(C)[C@]5(C)CC6)OCC(O)C4O)C(O)C3OC3OCC(O)(CO)C3O)C2O)C(O)C(O)C1O (stereo not given in full) | 9.62 µM (inactive) | 6.61 µM (inactive) | 6.31 µM (inactive) | 5.83 µM (inactive) | 7.71 µM | 11.3 µM (inactive) | 8.05 µM (inactive) | 12.7 µM (inactive) | 7.35 µM (inactive) | 9.02 µM (inactive) | 9.84 µM (inactive) | 13.6 µM (inactive) | 10 µM (inactive) | 8.83 µM (inactive) | 6.24 µM (inactive) | 11.2 µM (inactive) | 9.79 µM (inactive) | 9.1 µM (inactive) | 3.56 µM (inactive)
13 | COC(=O)C1=C(C(=O)OC)C2(C)CCC(=O)C1O2 (stereo not given) | > 10 µM (inactive) | > 10 µM (inactive) | > 10 µM (inactive) | > 10 µM (inactive) | > 10 µM | > 10 µM (inactive) | > 10 µM (inactive) | > 10 µM (inactive) | > 10 µM (inactive) | > 10 µM (inactive) | > 10 µM (inactive) | > 10 µM (inactive) | > 10 µM (inactive) | > 10 µM (inactive) | > 10 µM (inactive) | 2.7 µM (inactive) | > 10 µM (inactive) | > 10 µM (inactive) | > 10 µM (inactive)
14 | O=[Se](O)O | 19 µM (inactive) | 1.15 µM (inactive) | > 30.7 µM (inactive) | 2.11 µM (inactive) | 3.15 µM | 0.67 µM (active) | 1 µM (active) | 0.762 µM (active) | 4.57 µM (inactive) | 1.95 µM (inactive) | 2.88 µM (inactive) | 3.29 µM (inactive) | 1.18 µM (inactive) | 0.912 µM (active) | 3.27 µM (inactive) | 1.49 µM (inactive) | 6.67 µM (inactive) | 12.6 µM (inactive) | 2.95 µM (inactive)
15 | N#CC1=C(C#N)/C(=C(\C#N)C(C#N)C#N)N=C1N | 25.9 µM (inactive) | 21.4 µM (inactive) | 26.9 µM (inactive) | 43.9 µM (inactive) | 22.6 µM | 28.2 µM (inactive) | 91.4 µM (inactive) | 28.6 µM (inactive) | 50.8 µM (inactive) | 33.5 µM (inactive) | 52 µM (inactive) | 32.6 µM (inactive) | 32.7 µM (inactive) | 22.4 µM (inactive) | 21.1 µM (inactive) | 41.8 µM (inactive) | > 32.6 µM (inactive) | 19.6 µM (inactive) | 35.5 µM (inactive)
